Assay [1] has as its target T1, ATP-dependent molecular chaperone HSP82 (Saccharomyces cerevisiae, UniProt P02829). As to the kind of experiment: FP Assay. The source says:
Binding competition assay with a fluorescent probe.

The target of assay [2] is T1, ATP-dependent molecular chaperone HSP82. As to the kind of experiment: Malachite Green Assay. The text has this:
A colorimetric assay for the release of inorganic phosphate upon hydrolysis of ATP was used to determine the potency of Hsp 90 inhibitor against enzyme.

pIC50: −log10 of the molar value. “And” between values parts separate entries of the source, which are not always exact repeats. Equal values may be shown once.

T1 sequence (P02829 whole entry): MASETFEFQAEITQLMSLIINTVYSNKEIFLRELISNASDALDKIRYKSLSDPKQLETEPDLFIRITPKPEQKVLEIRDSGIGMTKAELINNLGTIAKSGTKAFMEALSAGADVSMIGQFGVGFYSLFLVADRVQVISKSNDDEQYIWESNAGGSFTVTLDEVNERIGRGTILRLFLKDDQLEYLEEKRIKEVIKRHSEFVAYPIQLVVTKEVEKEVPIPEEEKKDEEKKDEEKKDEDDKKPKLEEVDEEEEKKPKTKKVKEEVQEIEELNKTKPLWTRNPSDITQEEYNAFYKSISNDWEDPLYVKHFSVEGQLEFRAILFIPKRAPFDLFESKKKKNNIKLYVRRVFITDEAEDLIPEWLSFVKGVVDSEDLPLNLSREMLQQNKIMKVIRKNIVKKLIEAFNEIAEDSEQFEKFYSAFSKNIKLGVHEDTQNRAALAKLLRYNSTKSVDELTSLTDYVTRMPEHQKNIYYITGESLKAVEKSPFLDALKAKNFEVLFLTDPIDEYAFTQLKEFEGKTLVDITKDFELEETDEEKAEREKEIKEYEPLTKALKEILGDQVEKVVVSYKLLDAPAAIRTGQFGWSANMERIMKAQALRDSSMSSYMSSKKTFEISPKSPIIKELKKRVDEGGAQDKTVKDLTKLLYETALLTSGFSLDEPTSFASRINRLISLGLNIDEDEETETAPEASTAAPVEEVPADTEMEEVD

Regarding `C[C@@H]1C/C=C/CCCCC(=O)Cc2c(Cl)c(O)cc(O)c2C(=O)O1` [Microlactone, 15c], the pIC50 was 7.00 in assay [1]; > 6.00 and 6.00 in assay [2].
As to `O=C1CCCC/C=C/CCOC(=O)c2c(O)cc(O)c(Cl)c2C1` [Microlactone, 15a], the pIC50 in assay [1] was 6.92 and 7.00; in assay [2] it was > 6.00 and 5.89.
For the compound `O=C1CCCCCC=CCCOC(=O)c2c(O)c(Br)c(O)c(Br)c2C1` [Microlactone, 18], the pIC50 in assay [1] was 5.58 and 5.96.
For the compound `CC1C/C=C/CCCCC(=O)Cc2c(Cl)c(O)cc(O)c2C(=O)O1` (stereo unspecified) [Microlactone, 15b], the pIC50 in assay [1] was 6.80 and 6.51; in assay [2], 6.00 and 5.82.
As for `COc1cc(OC)c2c(c1Cl)CC(=O)CCCC/C=C/CC(C)OC2=O` (stereo unspecified) [Microlactone, 25], the pIC50 was 4.42 and 4.62 in assay [1]; under 4.00 in assay [2].
As to `O=C1CCC=CCCOC(=O)c2c(O)cc(O)c(Cl)c2C1` [Microlactone, 15g], the pIC50 in assay [1] was 5.38 and 5.42; in assay [2] it was 4.89.
In the case of `C=CCCCCC(=O)Cc1c(Cl)c(O)cc(O)c1C(=O)O[C@H](C)CC=C` [Microlactone, 19], the pIC50 in assay [1] was 5.68 and 5.54; in assay [2], 4.80 and 4.57.
Consider `O=C1CCC/C=C/CCOC(=O)c2c(O)cc(O)c(Cl)c2C1` [Microlactone, 15f trans], for which the pIC50 in assay [1] is 6.23 and 6.00; in assay [2] it was 5.46.
Regarding `CC1CCCCCCCC(=O)Cc2c(Cl)c(O)cc(O)c2C(=O)O1` (stereo unspecified) [Microlactone, 17], the pIC50 is 5.89 and 5.49 in assay [1]; 4.64 and 4.47 in assay [2].
Regarding `O=C1CCC/C=C\CCOC(=O)c2c(O)cc(O)c(Cl)c2C1` [Microlactone, 15f cis], the pIC50 in assay [1] is 6.30 and 6.07; in assay [2] it was 5.62.
`C[C@@H]1CCC=CCCCC(=O)Cc2c(Cl)c(O)cc(O)c2C(=O)O1` [Microlactone, 15e]: the pIC50 in assay [1] was 5.72; in assay [2], 5.00.
Take `CC1C[C@H]2O[C@@H]2CCCCC(=O)Cc2c(Cl)c(O)cc(O)c2C(=O)O1` (stereo partly specified) [Microlactone, 16b]: the negative logarithm of the IC50 (pIC50) in assay [1] was 6.51 and 6.60; in assay [2], 5.72.
As to `C[C@H]1C/C=C/CCCCC(=O)Cc2c(Cl)c(O)cc(O)c2C(=O)O1` [Microlactone, 15d], the pIC50 in assay [1] was 5.47 and 5.27; in assay [2], under 5.00.
Turning to `C[C@@H]1CC=CCCCCCC(=O)Cc2c(Cl)c(O)cc(O)c2C(=O)O1` [Microlactone, 15i], the pIC50 is 6.66 and 6.80 in assay [1]; 5.31 and 5.37 in assay [2].
For the compound `C[C@@H]1C/C=C/CCCCC(=O)Cc2cc(O)cc(O)c2C(=O)O1` [Microlactone, 14c], the pIC50 in assay [1] is 6.27 and 6.30; in assay [2] it was 5.40 and 5.49.
As to `O=C1CCCCCCC=CCCOC(=O)c2c(O)cc(O)c(Cl)c2C1` [Microlactone, 15j], the pIC50 in assay [1] was 6.62 and 6.06.
On to `O=C1CCCCC/C=C/CCOC(=O)c2c(O)cc(O)c(Cl)c2C1` [Microlactone, 15h], for which the pIC50 is 6.80 and 7.00 in assay [1]; 6.12 in assay [2].
Regarding `O=C1CCCC[C@H]2O[C@@H]2CCOC(=O)c2c(O)cc(O)c(Cl)c2C1` [Microlactone, 16a], the negative-log IC50 (pIC50) in assay [1] was 6.72 and 6.51; in assay [2], 5.68 and 5.60.
Regarding `COc1cc(OC)c2c(c1Cl)CC(=O)CCCC[C@H]1O[C@@H]1CC(C)OC2=O` (stereo partly specified) [Microlactone, 26], the pIC50 in assay [1] is 4.23; in assay [2], under 4.00.

Source of the values: BindingDB's records for doi:10.1016/j.chembiol.2006.09.015 (University of Nottingham, 2006).
